The values below come from US7767854B2, “N-substituted phenylacetamide derivative and pharmaceutical composition containing the same” (Dainippon Sumitomo Pharma Co., Ltd., priority 2005, dated 2010).

Structures are written as SMILES. “Also recorded” adds a separate entry of the source.

Data set [1] can be described thus: Analgesic effect of prior-art compounds (background statement).
Another data set concerns male Std: Wistar rats. As to the kind of experiment: Pain test by plantar thermal stimuli (plantar test). The format is in vivo. As to conditions: Rattus norvegicus, 4 h, 50 μl of 0.03% (W/V) solution i.pl. into right hind-paw; 4 hours after administration; cut-off 25 seconds; read-out: % MPE (percent maximum possible effect, withdrawal latency). The method, boiled down: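 Male Wistar rats (170–220 g, 4/group) received 50 μl of a 0.03% (W/V) solution intraplantar into the right hind paw (vehicle: saline, 10% Tween 80, 10% ethanol). Infrared-evoked withdrawal latency (baseline ~10 s, 25 s cut-off, mean of 3 readings) was measured the day before and 4 h after dosing, and expressed as % MPE.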

The subject of a further data set is male Std:ddY mice. The experiment in a line: Study for irritancy (eye-wiping test). The format is in vivo, mouse. The procedure: Experiment 2: Study for Irritancy (Eye-Wiping Test)
In this experiment, we examined the irritancy of the compounds of the invention. The experiment was carried out according to Jancso, et al., [Acta. Physiol. Acad. Sci. Hung., 19, 113-131 (1961)] and Szallasi, et al., [Brit. J. Pharmacol., 119, 283-290 (1996)]. In more detail, the compounds of the invention were dissolved in a physiological saline solution containing 5% Tween 80 and 5% ethanol to prepare each 2 different concentrations (2 concentrations: 10 and 30 μg/ml). One drop of each the solution was dropped into an eye of male Std:ddY mice (5 […]/group; body weight, 20-30 g). The protective wiping behaviors with its front paws were counted for every one minute from 0 to 5 minutes after the administration. Then, the average counts in each one minute were calculated, and the maximum value among the averages was defined as the representative value. Using the saline solution containing […] and 5% ethanol as a vehicle solvent, the test mentioned above was also carried out.

Data set [2] has as its system Slc: Hartley male guinea-pigs. As to the kind of experiment: Skin sensitization test (Adjuvant and Patch Test, allergenic potency). The format is in vivo, guinea-pig. Particulars: 1% solution patches, FCA pre-treatment, observed 24 and 48 hours after initiation. As to the method:
Experiment 3. Skin Sensitization Test (Evaluation of Allergenic Potency)
The purpose of the present experiment is to investigate if each administered compound of the invention may induce allergic contact dermatitis. In detail, the test was carried out using Freund's complete adjuvant (FCA) according to the Adjuvant and Patch Test [Sato, et al., Contact Dermatitis, 7, 225-237 (1981)], which is described in “Description of Guideline on Nonclinical Studies of Drugs (Iyakuhin Hirinshou-shiken Guideline Kaisetsu), Chapter 8, P.72-76, Skin sensitization test” [edited by the Ministry of Health and Welfare, Pharmaceutical Affairs Bureau, Yakuji-Nippou-sha (1997)]. Slc: Hartley male guinea-pigs were used for the test. As a test compound, each the compound of the invention and DNCB (1-chloro-2,4-dinitrobenzene) as a positive control drug were dissolved in 70% ethanol/water solution and were administered to the animals. The 70% ethanol/water solution was used as vehicle solvent (reference).
In detail, after FCA emulsion was intradermally administered around the shaved back part of the guinea-pig as a pre-treatment, each patch containing 1% test compound solution or reference (solvent) solution was closedly attached once a day for consecutive 3 days in total (Primary Sensitization). On 7th day after the Primary Sensitization, 10% sodium lauryl sulfate ointment was openly applied at the same part for 24 hours, and then each patch containing 1% test compound solution or reference (solvent) solution was closedly attached again for 48 hours (Second Sensitization). 14 days after the Second Sensitization treatment, each test compound (maximum concentration: 1%) was applied for 24 hours using patch in the same manner (initiation). 24 and 48 hours after the application, the reaction (erythema, edema) on the applied skin part was observed and was scored (0-3) based on the criteria of Magnusson and Kligman [J. Invest. Dermatol., 52, 268-276 (1969)], and then the degree of skin sensitization induced by each of compound was evaluated.

The subject of a further data set is female CBA/JN mice. The experiment in a line: Skin sensitization test (Local Lymph Node Assay with BrdU). The class given is in vivo, mouse. Particulars: 1 and 3% solutions in DMF on both auricles, 3 days. The procedure: Experiment 4: Skin Sensitization Test (Local Lymph Node Assay)
The purpose of the present experiment is to investigate if each administered compound of the invention can induce allergic contact dermatitis. In detail, the skin sensitization effect of the compounds of the invention was examined using BrdU (bromodeoxyuridine) by LLNA (Local Lymph Node Assay).
In more detail, the test was carried out according to the method by Suda, A. et al. (Local lymph node assay with non-radioisotope alternative endpoints. J. Toxicol. Sci., 27(3):205-218, 2002). Namely, the compounds of the invention were dissolved in DMF (N,N-dimethylformamide) to prepare 1 and 3% solutions, which were applied to both auricles of female CBA/JN mice aged 9 weeks for consecutive 3 days (1st day to 3rd day)(25 μl/one-side ear, once a day)
As positive control drugs, DNCB (dinitrochlorobenzene, a potently sensitizing drug) and HCA (α-hexylcinnamaldehyde, a weakly sensitizing drug) were used. After the final application was finished (on 3rd day), ALZET Osmotic Pump containing 100 μl of 200 mg/mL BrdU (releasing rate: 0.5 μl/hour) was implanted into the ventral skin under pentobarbital anesthesia, and BrdU was exposed sustainedly. On 9th day from starting day to apply the compounds of the invention, the animals were euthanized by cervical dislocation, and parotid lymph nodes of both their ears were taken out. The nodes were weighed and homogenized in PBS to prepare a single cell suspension which was measured by a blood test device: ADVIA (Bayer) to count the number of the cells. Next, the cells were immunofluorescently stained with FITC-labeled anti-BrdU antibody using a BrdU Flow Kit (BD Biosciences), which were measured and analyzed using a flow cytometer: FACS Calibur (Becton Dickinson) to give BrdU-positive cell percentage. And then, the BrdU-positive cell percentage was multiplied by the number of the node cells to give the number of the BrdU-positive cells. Additionally, on each parameter, the average value for the test compound group was divided by the average value for the reference (solvent) group to give a stimulation Index (SI). We judged that the compound had skin sensitization activity when the SI of BrdU-positive cell number was 2 or more, in principle.

The conditions of data set [3]: cited from earlier work.

As to `COc1cc(CC(=O)NC2CCC(C)CC2)ccc1O` (stereo not shown), in data set [1], the analgesic effect result was “little analgesic effect”.

For the molecule `COc1cc(CNC(=O)CCCC/C=C/C(C)C)ccc1O` [Capsaicin, (E)-8-methyl-N-vanillyl-6-nonenamide], the change in vivo at 300 µg/mL in the data set on male Std: Wistar rats was 39.2%. Also, the “Representative value of counts of protective wiping behaviors (max. counts, counts/min)” value with male Std:ddY mice (10 μg/ml, one drop into eye, 0 to 5 minutes) was found to be 20.0 counts/min. For the same molecule, the “irritancy (protective wiping behaviors, in words)” value with male Std:ddY mice (capsaicin 10 μg/ml, Example compounds up to 30 μg/ml) is “frequent protective wiping behaviors”.

With `COc1cc(CC(=O)N[C@H]2CC[C@H](CCCC(C)C)CC2)ccc1O` [Example 27], in the data set with male Std: Wistar rats, the change in vivo at 300 µg/mL is 89.5%. For the same molecule, in data set [2], the “skin sensitization (erythema, edema score)” value was “no skin sensitization”. For the same molecule, the “skin sensitization (SI of BrdU-positive cell number)” value with female CBA/JN mice is reported as “weak skin sensitization”.

On to `COc1cc(CC(=O)NC2CCCCC2)ccc1O` [drawing 3], for which the irritancy result in data set [3] (Arzneim.-Forsch., 25, 1877 (1975)) is “a little lower irritancy than capsaicin”. For the same molecule, the “stimulatory effect and desensitization” value in data set [3] (Arzneim.-Forsch., 26, 33 (1976)) was “strong stimulatory; also recorded: weak desensitization”. The analgesic effect entry in data set [1] is “little analgesic effect”.
